{
  "source": "patent US20190078143A1",
  "about": "“METHOD FOR TREATING NEURODEVELOPMENTAL DISORDERS” (New York University, priority 2017, published 2019)",
  "key": {"IL-17a": {"system": "IL-17a", "experiment": "Maternal plasma IL-17a ELISA after poly(I:C) at E12.5", "format": "in vivo, mouse", "conditions": "poly(I:C)-injected pregnant dams, 48 hrs after poly(I:C) at E12.5, compared to control group", "procedure": "(§1) Mice were mated overnight and females were checked daily for the presence of seminal plugs, noted as embryonic day 0.5. On E12.5, pregnant female mice were weighed and injected with a single dose (20 mg/kg; i.p.) of poly(I:C) (Sigma Aldrich) or PBS vehicle. Each dam was returned to its cage and left undisturbed until the birth of its litter. All pups remained with the mother until weaning on postnatal day 21-28 (P21-P28), at which time mice were group housed at a maximum of 5 per cage with same-sex littermates.\n(§2) For co-housing experiments, age-matched SFB-absent mice (from Jackson Laboratory) were co-housed with SFB-present mice (from Taconic Biosciences) in sterilized cages for two weeks at a ratio of 2:3, with unrestricted access to food and water. For SFB-gavaging experiments, four fecal pellets of SFB mono-colonized mice (provided by Dan Littman) were dissolved in 20 ml sterile PBS and filtered through a 100 μm cell strainer. 200 μl of fecal suspensions were gavaged via oral route to 4 week-old female Jackson mice. Control mice were gavaged with PBS. The SFB colonization was tested on day 7 following co-housing or SFB-gavaging. […]\nIL-17a, TNF-α, IFN-β, IL-1β and IL-23 levels were measured according to the manufacturer's protocol (BioLegend). IL-6 and IFN-γ levels were measured according to the manufacturer's protocol (eBioscience)."}, "[1]": {"system": "segmented filamentous bacteria (SFB)", "experiment": "16S rRNA qPCR of SFB levels in mouse fecal samples", "format": "in vivo", "conditions": "B6 mice before/after vancomycin treatment", "procedure": "(§3) For co-housing experiments, age-matched SFB-absent mice (from Jackson Laboratory) were co-housed with SFB-present mice (from Taconic Biosciences) in sterilized cages for two weeks at a ratio of 2:3, with unrestricted access to food and water. For SFB-gavaging experiments, four fecal pellets of SFB mono-colonized mice (provided by Dan Littman) were dissolved in 20 ml sterile PBS and filtered through a 100 μm cell strainer. 200 μl of fecal suspensions were gavaged via oral route to 4 week-old female Jackson mice. Control mice were gavaged with PBS. The SFB colonization was tested on day 7 following co-housing or SFB-gavaging. For ablation of intestinal bacteria, Taconic-derived female mice were orally gavaged with vancomycin hydrochloride (Fisher) (2.5 mg/kg) every two days, starting 7 days prior to breeding. Mouse fecal pellets were collected and stored at −80° C. before and after vancomycin treatments.\nBacterial genomic DNA was isolated from the fecal pellets of mice with phenol-chloroform extraction. qPCR was performed to quantify relative abundance of SFB, human commensal bacteria or total bacteria using group specific 16S rDNA primers (Table 3, FIG. 16). Undetected qPCR values from non-colonized samples were replaced with a Ct value of 40 for the purpose of comparison."}, "[2]": {"system": "Th17 cells in the small intestine", "experiment": "Flow cytometry of ileal CD4+ T cells for IL-17a and RORγt in poly(I:C)-treated dams", "format": "in vivo, mouse", "conditions": "poly(I:C)-injected pregnant dams, E14.5, compared to control group", "procedure": "as §3\nFor mononuclear cell isolations, both mesenteric fat tissues and Peyer's patches were carefully removed from intestinal tissues. […]\nMononuclear cells were incubated with or without 50 ng/ml phorbol myristate acetate (PMA) (Sigma) and 500 ng/ml ionomycin (Sigma) in the presence of GolgiStop (BD) in complete T cell media at 37° C. for 5 h. […] All data were re-analyzed using FlowJo (Tree Star)."}, "[3]": {"system": "segmented filamentous bacteria (SFB)", "conditions": "commensal bacteria in laboratory mice, general statement; cited from earlier work"}, "MIA offspring": {"system": "MIA offspring", "experiment": "Behavioral assays (USV, marble burying, open field, three-chamber sociability) in offspring of poly(I:C)-injected dams", "format": "in vivo, mouse", "conditions": "poly(I:C)-injected mothers pre-treated with vancomycin, oral gavage every two days from 7 days before breeding", "procedure": "as §1, with “littermates. […]” for “littermates.”\nOn P9, both male and female offspring mice were removed from the nest and habituated to the testing room for 30 min. […] Ultrasonic vocalizations (USVs) were detected for 3 min using an UltraSoundGateCM16/CMPA microphone (AviSoft) in the sound attenuation chamber under stable temperature and light control, and recorded with SAS Prolab software (AviSoft). USVs were measured between 33-125 kHz using Ultravox software (Noldus Information Technology, USA). Due to the unreliability of automated USV scoring, all pup USV calls were counted manually and plotted on the y-axis. […]\n8-12-week-old male mice were tested for social behavior using the three-chamber social approach paradigm. […] Experimental mice were given 10 min to explore both chambers and measured for approach behavior as interaction time (i.e. sniffing, approach) with targets in each chamber (within 2 cm). […]"}, "[4]": {"system": "cortical patches (SATB2) in primary somatosensory cortex", "experiment": "Cortical patches by SATB2 immunohistochemistry in adult MIA offspring brains", "format": "in vivo, mouse", "conditions": "offspring of poly(I:C)-injected mothers pre-treated with vancomycin", "procedure": "as §1\nas §2, with “strainer.” for “strainer. 200 μl of fecal suspensions were gavaged via oral route to 4 week-old female Jackson mice. Control mice were gavaged with PBS. The SFB colonization was tested on day 7 following co-housing or SFB-gavaging.”\nAdult male mice were perfused and fixed with 4% paraformaldehyde in PBS for overnight at 4° C. […] The cortical malformation images were analyzed using Image J software. […]\nCortical patches were identified as cortical regions devoid of SATB2 expression. The size of the cortical patches in the S1 was calculated using Zen software (Carl Zeiss). […] SATB2 positive cells were quantified manually."}},
  "note": "“Also recorded” adds a separate entry of the source.",
  "data": [
    {"molecule": "CN[C@H](CC(C)C)C(=O)N[C@H]1C(=O)N[C@@H](CC(N)=O)C(=O)N[C@H]2C(=O)N[C@H]3C(=O)N[C@H](C(=O)N[C@H](C(=O)O)c4cc(O)cc(O)c4-c4cc3ccc4O)[C@H](O)c3ccc(c(Cl)c3)Oc3cc2cc(c3O[C@@H]2O[C@H](CO)[C@@H](O)[C@H](O)[C@H]2O[C@H]2C[C@](C)(N)[C@H](O)[C@H](C)O2)Oc2ccc(cc2Cl)[C@H]1O", "note": "[vancomycin]", "values": [
      {"measurement": "levels of IL-17a in the maternal plasma", "setting": "IL-17a", "result": "reduction in the levels of IL-17a"},
      {"measurement": "intestinal colonization by SFB (qPCR of fecal samples)", "setting": "[1]", "result": "severely reduced"},
      {"measurement": "proportion of Th17 cells in the small intestine", "setting": "[2]", "result": "decrease in the proportion of Th17 cells"},
      {"measurement": "susceptibility of SFB to vancomycin", "setting": "[3]", "result": "susceptible"},
      {"measurement": "development of behavioral abnormalities in MIA offspring (USV, marble burying, open field center time, % interaction)", "setting": "MIA offspring", "result": "prevented induction of behavioral abnormalities; also recorded: prevented development of all four behavioral abnormalities"},
      {"measurement": "cortical patches in adult offspring", "setting": "[4]", "result": "failed to develop cortical patches"}
    ]}
  ]
}
